Measurements as given in ChEMBL document CHEMBL1127277, “Synthesis and in vitro cytotoxicity of 1,3-dioxolane-2-(2-ethanamine)-2-methanamine platinum(II) complexes” (Bioorg Med Chem Lett, 1994).

Columns and labels:
[1] = test system: SNU-5; experiment: Cytotoxicity against human stomach cancer cell line SNU-5 in MTT assay; format: functional, cell-based
[2] = test system: L1210; experiment: In vitro cytotoxicity against cisplatin resistance L1210 murine leukemia cell line; format: functional, cell-based, Mus musculus
[3] = test system: PC-9; experiment: Cytotoxicity against human non-small cell lung cancer cell line PC-9 in MTT assay; format: functional, cell-based
[4] = test system: SNU-16; experiment: Cytotoxicity against human stomach cancer cell line SNU-16 in MTT assay; format: functional, cell-based
[5] = test system: PC-14; experiment: Cytotoxicity against human non-small cell lung cancer cell line PC-14 in MTT assay; format: functional, cell-based
[6] = test system: SNU1; experiment: Cytotoxicity against human stomach cancer cell line SNU-1 in MTT assay; format: functional, cell-based
[7] = test system: L1210; experiment: In vitro cytotoxicity against cisplatin sensitive L1210 murine leukemia cell line; format: functional, cell-based, Mus musculus
[8] = test system: L1210; experiment: Ratio of the cytotoxicity against cisplatin resistance L1210 to parent (sensitive) cell lines; format: functional, cell-based

Sequence | IC50 [1] | IC50 [2] | IC50 [3] | IC50 [4] | IC50 [5] | IC50 [6] | IC50 [7] | Ratio [8]
CISPLATIN [listing 1 of 2 here] | 1 µM | 3.27 µM | 1 µM | 5 µM | 1.33 µM | 2.67 µM | 0.1 µM | 
CISPLATIN [listing 2 of 2 here] |  |  |  |  |  |  |  | 3.24
CARBOPLATIN [listing 1 of 2 here] |  |  |  |  |  |  |  | 24.1
CARBOPLATIN [listing 2 of 2 here] | 9.16 µM | 44.2 µM | 21.8 µM | 13.7 µM | 15.6 µM | 20.1 µM | 1.83 µM | 
